Assays:
SD rats = assay: application of test substance onto dehaired abdominal skin of fattened SD rats for 2 weeks; weight of each fat measured; format: in vivo, rat; details: applied onto abdominal skin, 2 ml of 5 mg/ml ethanol solution daily for 2 weeks, n=3, p<0.05
Procedure: The abdomen of each fat rat was dehaired (20 mm square). Thereafter, 2 ml of a phytostenone-containing composition (30 mg/ml ethanol solution) used as a test substance, 2 ml of campest-5-en-3-one (5 mg/ml ethanol solution) used as a test substance, or 2 ml of an ethanol solution used as a control was applied gently with a cotton to individual rats divided into the groups (n=3 in each group). This operation was carried out continuously for 2 weeks. After termination of the application test, the rats were dissected, and liver fat, epididymal fat, perirenal fat, mesenteric fat, and subcutaneous fat were carefully recovered. Thereafter, the weight of each fat was measured.
Herein, in the present example, the significance test was carried out as follows. First, the mean value±standard error in each group was calculated, and a variance test was then carried out. In the case of equal variance, the significance test was carried out according to the t-test, and in the case of unequal variance, the significance test was carried out according to the Welch method.

[1] = orally administered, approximately 120 mg/day over 8 weeks; cited from earlier work

With CC(C)[C@H](C)CC[C@@H](C)[C@H]1CC[C@H]2[C@@H]3CC=C4CC(=O)CC[C@]4(C)[C@H]3CC[C@]12C [campest-5-en-3-one] as the compound, how does the “reduction of the amount of subcutaneous fat compared with the control (ethanol solution)” value (SD rats) read?
The value was “approximately 16%”.

What about the “subcutaneous fat reduction percentage” value [1] of the same compound?
The value was 26%.
